Like-named read-outs stand apart in the source and are kept apart here.
Legend:
RAW cells [1] = test: Toxicity of anticancer agents against RAW cells (CellTiter-Glo viable cell count); assay type: cell-based
Experimental: RAW cells were seeded on a 96-well plate at 20 000 cells/well (D-MEM high glucose medium containing 10% inactivated FBS). […] The number of viable cells was counted 24 hours later by measuring chemical luminescence by using CellTiter-Glo™ 2.0 Cell Viability Assay (Promega) and a plate reader (Tecan, Infinite M Plex). Cells for four wells were analyzed for each group.

RAW cells [2] = test: Active oxygen production in RAW cells (MitoSOX Red); assay type: cell-based
Experimental: RAW cells were seeded on a 96-well plate for fluorescence at 20 000 cells/well (D-MEM high glucose medium containing 10% inactivated FBS). […] Sixteen hours later, cells were treated with an HBSS solution containing dissolved MitoSOX™ Red Mitochondrial Superoxide Indicator (Invitrogen™) for 30 minutes, and the medium was replaced with D-MEM high glucose medium containing 1% inactivated FBS. Active oxygen production in mitochondria was determined by measuring fluorescence (Ex 510 nm, Em 580 nm) by using a plate reader (Infinite M Plex, Tecan). Cells for four wells were analyzed for each group.

[3] = test system: Large intestine cancer cells (colo320, HCT116); test: Proliferation of large intestine cancer cells (CCK-8); assay type: cell-based; conditions: OXA alone, 3-fold dilutions from 100 μM, 72 hours; FIG. 6
Experimental: Large intestine cancer cells (colo320, HCT116) were added to RPM1640 medium (Thermo Fisher Scientific Inc.) containing 10% fetal bovine serum and 100 units/mL penicillin-streptomycin (Gibco BRL) and cultured at 37° C. in a 5% CO2 incubator.
Cells were seeded on a 96-well plate at 10 000 cells/well and treated with a test solution 24 hours later. A test solution containing OXA alone was diluted 3-fold from 100 μM (10 levels) and added to a 96-well plate. A test solution containing OXA+PC-SOD was obtained by adding the same concentrations of OXA to PC-SOD (50 μg/mL) (n=3 per group). After cells were cultured for 72 hours, a CCK-8 solution was added in a volume of 1/10 of the solution in each well, and the mixture was measured at 490 nm of absorbance (Tecan, Tecan Japan). Data were expressed with mean±standard error (SEM). It should be noted that experiment conditions were allowed to be changed as required.

[4] = test system: PC12 cells differentiated by NGF; test: Neurite retraction in NGF-differentiated PC12 cells caused by anticancer agents; assay type: cell-based, rat; conditions: oxaliplatin 20 μM, 24 hours, FIG. 8
Experimental: Rat adrenal gland pheochromocytoma-derived PC12 cells are known to be differentiated into neuron-like cells having neurites by nerve growth factor (NGF) and are widely used as a nerve cell model. To assess the neurite-protective action of PC-SOD, the effect of PC-SOD in neurite disorder caused by various anticancer agents was analyzed by using PC12 cells differentiated by NGF.
PC12 cells were seeded on a 24-well plate coated with collagen at 5 000 cells/well. […] The images of cells were captured by using a microscope (BZ-X800, Keyence Corporation), and the neurite lengths were measured by using an image analysis software ImageJ (NIH).
PC12 cells were seeded on a 24-well plate coated with collagen at 5 000 cells/well. […] After neurite elongation, cells were cultured by using differentiation media each containing carboplatin (with a final concentration of 50 μM) alone or carboplatin and PC-SOD (with final concentrations of 10, 20, 50, and 100 μg/mL) for 24 hours. The images of cells were captured by using a microscope (BZ-X800, Keyence Corporation), and the neurite lengths were measured by using an image analysis software ImageJ (NIH).
PC12 cells were seeded on a 24-well plate coated with collagen at 5 000 cells/well. […] After neurite elongation, cells were cultured by using differentiation media each containing paclitaxel (abbreviated as PTX in the figure of results) alone (with a final concentration of 0.1 μM) or paclitaxel and PC-SOD (with final concentrations of 10, 50, and 100 μg/mL) for 24 hours. The images of cells were captured by using a microscope (BZ-X800, Keyence Corporation), and the neurite lengths were measured by using an image analysis software ImageJ (NIH).

[5] = test system: liver of OXA-treated rats; test: Pathological assessment of liver disorder caused by oxaliplatin (HE staining); assay type: in vivo, rat; conditions: PC-SOD 1 mg/kg, mangafodipir dose not given, FIG. 5
Excerpt: A liver tissue was collected and fixed with 10% neutral buffered formalin to prepare a paraffin block by using Histos 5 (Milestone) and an embedding center (EG1160, Leica). The sample block was thinly sliced at a thickness of 3 μm by using a microtome (MR2245, Leica) to prepare a slide. The prepared slide was stained by HE staining, enclosed, and observed at 200 and 400-fold magnifications by using the optical microscope function of All-in-One Fluorescence Microscope (BZ-X800, Keyence Corporation). Observation and assessment were performed by observing the whole section. Two to four representative tissue images were randomly taken up, and alteration in the tissue structure, such as inflammation and necrosis, was observed and assessed (Scale bar=200 μm).

[6] = anticancer agent alone, 24 hours, FIG. 12-1
[7] = anticancer agent alone, 16 hours, FIG. 13-1

Row | Molecule | number of viable RAW cells (RAW cells [1]; [6]) | active oxygen production in mitochondria of RAW cells (RAW cells [2]; [7]) | active oxygen production in mitochondria of RAW cells (RAW cells [2]) | further results
1 | N.N.O=C([O-])C1(C(=O)[O-])CCC1.[Pt+2] [carboplatin] | decreased the number of viable cells dependently on the concentration of the anticancer agent | induced active oxygen production dependently on the concentration of the anticancer agent | – | –
2 | N.N.[Cl][Pt][Cl] [cisplatin] | – | – | induced active oxygen production dependently on the concentration of the anticancer agent | –
3 | Nc1ccn([C@@H]2O[C@H](CO)[C@@H](O)C2(F)F)c(=O)n1 [gemcitabine] | – | – | induced active oxygen production dependently on the concentration of the anticancer agent | number of viable RAW cells (RAW cells [1]): decreased the number of viable cells dependently on the concentration of the anticancer agent
4 | O=C1[O][Pt]2([NH][C@@H]3CCCC[C@H]3[NH]2)[O]C1=O [oxaliplatin] | decreased the number of viable cells dependently on the concentration of the anticancer agent | induced active oxygen production dependently on the concentration of the anticancer agent | – | proliferation of large intestine cancer cells [3]: Suppression of proliferation of large intestine cancer cells caused by OXA was confirmed
5 | mangafodipir [reference compound] | – | – | – | neurite retraction caused by oxaliplatin ([4]; test substance 5 μg/mL): a weak suppressing tendency was observed; neurite retraction caused by oxaliplatin ([4]; test substance at concentrations higher than 5 μg/mL (up to 50 μg/mL)): no higher retraction suppressing effect was observed; necrosis of liver cells caused by OXA [5]: the suppressive effect on necrosis of liver cells caused by OXA was not observed

From patent US20240261375A1, “PHARMACEUTICAL COMPOSITION FOR TREATING OR PREVENTING DISORDER ASSOCIATED WITH ADMINISTRATION OF ANTICANCER AGENT” (LTT BIO-PHARMA CO., LTD., priority 2021, published 2024)
